Results from the supplement of paper PMC10307832.

Key:
Assay in all cases: relative viability (nuclei count vs DMSO), 5 days (fraction); higher = more cells survive
[1] = compound: CC(C)(C)c1cc(NC(=O)Nc2ccc(-c3cn4c(n3)sc3cc(OCCN5CCOCC5)ccc34)cc2)no1 [Quizartinib] + CC(=O)c1c(C)c2cnc(Nc3ccc(N4CCNCC4)cn3)nc2n(C2CCCC2)c1=O [Palbociclib] (partner 0.5 µM)
Procedure, shortened: (§1)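 Lung cancer cell lines in 1536-well plates were dosed by pin tool the day after seeding, either with one drug alone or with a fixed anchor-drug dose plus five library-drug doses (not always all listed) in √10 steps. After 5 days, cells were fixed and their nuclei stained in one step (final 0.05% Triton X-100, 1% formaldehyde, 1 ug/ml Hoechst), then counted on 4× images. Relative viability is the nuclei count in treated wells divided by that in vehicle wells. Values are medians of duplicate plates.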

[2] = compound: CC(C)(C)c1cc(NC(=O)Nc2ccc(-c3cn4c(n3)sc3cc(OCCN5CCOCC5)ccc34)cc2)no1 [Quizartinib] + Cc1nc(NC(=O)N2CCC[C@H]2C(N)=O)sc1-c1ccnc(C(C)(C)C(F)(F)F)c1 [Alpelisib] (partner 2 µM)
Procedure, shortened: as §1

[3] = compound: COCC[n+]1c2c(n(Cc3cnccn3)c1C)C(=O)c1ccccc1C2=O [YM155] + CS(=O)(=O)N1CCN(Cc2cc3nc(-c4cccc5[nH]ncc45)nc(N4CCOCC4)c3s2)CC1 [Pictilisib] (partner 1 µM)
Procedure, shortened: as §1

[4] = compound: COCC[n+]1c2c(n(Cc3cnccn3)c1C)C(=O)c1ccccc1C2=O [YM155] + Nc1nc2[nH]cc(CCc3ccc(C(=O)N[C@@H](CCC(=O)O)C(=O)O)cc3)c2c(=O)[nH]1 [Pemetrexed] (partner 0.2 µM)
Procedure, shortened: as §1

Row | Cell Line | relative viability ([1]; first compound 0.001 µM) | relative viability ([1]; first compound 0.003162 µM) | relative viability ([1]; first compound 0.01 µM) | relative viability ([1]; first compound 0.03162 µM) | relative viability ([1]; first compound 0.1 µM) | relative viability ([2]; first compound 0.001 µM) | relative viability ([2]; first compound 0.003162 µM) | relative viability ([2]; first compound 0.01 µM) | relative viability ([2]; first compound 0.03162 µM) | relative viability ([2]; first compound 0.1 µM) | relative viability ([3]; first compound 0.002 µM) | relative viability ([3]; first compound 0.006325 µM) | relative viability ([3]; first compound 0.02 µM) | relative viability ([3]; first compound 0.06325 µM) | relative viability ([4]; first compound 0.002 µM) | relative viability ([4]; first compound 0.006325 µM) | relative viability ([4]; first compound 0.02 µM) | relative viability ([4]; first compound 0.06325 µM)
1 | LXF-289 | 0.52 | 0.603 | 0.649 | 0.594 | 0.574 | 0.992 | 0.999 | 1.1 | 1.01 | 0.947 | 0.772 | 0.771 | 0.752 | 0.549 | 0.855 | 0.914 | 0.827 | 0.783
2 | NCI-H23 | 0.425 | 0.543 | 0.548 | 0.453 | 0.396 | – | 0.556 | 0.679 | 0.645 | 0.687 | 0.518 | 0.459 | 0.484 | 0.222 | – | 0.655 | 0.646 | 0.549
3 | NCI-H322M | 0.429 | 0.477 | 0.49 | 0.512 | 0.527 | 0.707 | 0.779 | 0.799 | 0.758 | 0.787 | 0.49 | 0.553 | 0.559 | 0.556 | 0.504 | 0.613 | 0.576 | 0.622
4 | NCI-H358 | 0.131 | 0.117 | 0.134 | – | 0.138 | 0.693 | 0.89 | 0.815 | – | 0.753 | 0.254 | 0.349 | 0.332 | 0.249 | 0.181 | 0.172 | 0.167 | 0.127
5 | NCI-H522 | 0.898 | 0.995 | 1.01 | 1.34 | 0.977 | – | – | – | – | – | – | – | – | – | 0.841 | 0.938 | 0.92 | 0.899
6 | NCI-H596 | – | – | – | – | – | 0.521 | 0.498 | 1.34 | 0.407 | 0.396 | – | 0.387 | 0.378 | 0.431 | 0.429 | 0.485 | 0.532 | 0.499
7 | NCI-H727 | 0.677 | 0.684 | 0.625 | 0.673 | 0.765 | 0.482 | – | 0.588 | 0.586 | 0.556 | 0.397 | 0.533 | 0.446 | 0.375 | – | – | – | –
8 | NCI-H1299 | – | – | – | – | – | – | 1.01 | 1.11 | 1.06 | 0.986 | 0.653 | 0.803 | 0.845 | 0.516 | – | – | – | –
9 | NCI-H1563 | – | – | – | – | – | 0.893 | 0.871 | 0.945 | – | 0.826 | 0.633 | 0.674 | 0.626 | 0.75 | 0.753 | 0.726 | 0.86 | 0.745
10 | NCI-H1650 | 0.386 | 0.329 | 0.345 | – | 0.321 | – | – | – | – | – | 0.498 | 0.573 | 0.532 | 0.276 | 0.35 | 0.348 | 0.321 | 0.249
11 | NCI-H1703 | – | – | – | – | – | 0.34 | 0.196 | 0.209 | 0.182 | 0.22 | 0.26 | 0.232 | 0.248 | 0.116 | – | – | – | –
12 | NCI-H2342 | 0.482 | 0.538 | 0.483 | 0.615 | 0.462 | – | – | – | – | – | – | – | – | – | 0.75 | 0.742 | 0.764 | 0.788
13 | SW 900 | 0.507 | 0.547 | 0.63 | 0.541 | 0.558 | – | – | – | – | – | – | – | – | – | – | 0.492 | 0.489 | 0.47
